Results taken from patent publication US7524853B2 (Solvay Pharmaceuticals B.V., priority 2003, dated 2009).

Key:
Format in all cases: cell-based
[1] = target: T1, 17β-hydroxysteroid dehydrogenase type 3 (17β-HSD type 3) (Homo sapiens, UniProt P37058); experiment: Inhibition of 17β-HSD type 3 in MCF-7 cells stably expressing the isoenzyme (tritium labeled androstenedione conversion, HPLC); conditions: MCF7, MCF-7 cells expressing 17β-HSD type 3, 2 nM tritium labeled androstenedione; for inhibition at 1 µM: 1 μM test compound, read-out: % Inhibition HSD3 1 μM; for inhibition at 10 µM: 10 μM test compound, read-out: % Inhibition HSD3 10 μM
T1 construct: expressed in transfected cells; host or cells: MCF-7
T1 sequence (P37058 1-310): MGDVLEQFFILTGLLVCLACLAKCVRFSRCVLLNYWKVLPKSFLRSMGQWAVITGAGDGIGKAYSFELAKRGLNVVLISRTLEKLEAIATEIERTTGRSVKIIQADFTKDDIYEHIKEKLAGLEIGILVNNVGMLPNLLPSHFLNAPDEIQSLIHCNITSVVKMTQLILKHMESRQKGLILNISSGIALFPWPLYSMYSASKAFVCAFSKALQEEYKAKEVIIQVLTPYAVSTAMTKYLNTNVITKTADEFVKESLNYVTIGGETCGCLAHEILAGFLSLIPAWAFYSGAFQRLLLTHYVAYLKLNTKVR
Outline: (§1)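 MCF-7 lines stably expressing each 17β-HSD isoenzyme incubated in growth medium with compound at two concentrations and 2 nM tritiated substrate (estrone, type 1; estradiol, type 2; androstenedione, type 3). Reaction stopped with TCA; conversion measured by HPLC with flow scintillation, inhibition relative to compound-free control.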

[2] = target: T2, 17β-hydroxysteroid dehydrogenase type 2 (17β-HSD type 2) (Homo sapiens, UniProt P37059); experiment: Inhibition of 17β-HSD type 2 in MCF-7 cells stably expressing the isoenzyme (tritium labeled estradiol conversion, HPLC); conditions: MCF7, MCF-7 cells expressing 17β-HSD type 2, 2 nM tritium labeled estradiol; for inhibition at 1 µM: 1 μM test compound, read-out: % Inhibition HSD2 1 μM; for inhibition at 10 µM: 10 μM test compound, read-out: % Inhibition HSD2 10 μM
T2 construct: expressed in transfected cells; host or cells: MCF-7
T2 sequence (P37059 1-387): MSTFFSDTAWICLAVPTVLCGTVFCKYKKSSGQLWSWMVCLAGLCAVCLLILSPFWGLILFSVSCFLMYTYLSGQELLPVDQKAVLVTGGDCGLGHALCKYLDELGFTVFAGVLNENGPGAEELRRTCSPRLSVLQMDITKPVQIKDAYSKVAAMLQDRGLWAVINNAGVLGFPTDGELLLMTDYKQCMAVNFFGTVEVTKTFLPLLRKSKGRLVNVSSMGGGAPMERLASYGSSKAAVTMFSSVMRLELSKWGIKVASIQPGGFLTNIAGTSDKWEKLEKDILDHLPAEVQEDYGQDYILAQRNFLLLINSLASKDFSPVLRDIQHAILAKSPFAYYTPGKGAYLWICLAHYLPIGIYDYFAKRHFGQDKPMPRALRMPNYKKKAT
Outline: as §1

[3] = target: T3, 17β-hydroxysteroid dehydrogenase type 1 (17β-HSD type 1) (Homo sapiens, UniProt P14061); experiment: Inhibition of 17β-HSD type 1 in MCF-7 cells stably expressing the isoenzyme (tritium labeled estrone conversion, HPLC); conditions: MCF7, MCF-7 cells expressing 17β-HSD type 1, 2 nM tritium labeled estrone; for inhibition at 1 µM: 1 μM test compound, read-out: % Inhibition HSD1 1 μM; for inhibition at 10 µM: 10 μM test compound, read-out: % Inhibition HSD1 10 μM
T3 construct: expressed in transfected cells; host or cells: MCF-7
T3 sequence (P14061 1-328): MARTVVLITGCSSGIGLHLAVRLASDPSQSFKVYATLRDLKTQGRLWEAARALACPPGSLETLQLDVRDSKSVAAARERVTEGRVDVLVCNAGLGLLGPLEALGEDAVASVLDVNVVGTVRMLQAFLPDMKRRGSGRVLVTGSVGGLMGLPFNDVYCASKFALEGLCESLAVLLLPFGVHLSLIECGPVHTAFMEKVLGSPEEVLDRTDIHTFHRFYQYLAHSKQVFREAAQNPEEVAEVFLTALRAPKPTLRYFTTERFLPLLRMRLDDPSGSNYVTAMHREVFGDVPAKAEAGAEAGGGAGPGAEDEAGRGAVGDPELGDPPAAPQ
Outline: as §1

| Structure (SMILES) | inhibition at 1 µM [1] | inhibition at 10 µM [1] | inhibition at 1 µM [2] | inhibition at 10 µM [2] | inhibition at 1 µM [3] | inhibition at 10 µM [3] |
| --- | --- | --- | --- | --- | --- | --- |
| COc1cc(-c2nc3sc4c(c3c(=O)n2Cc2ccccc2)CCC(Br)C4=O)cc(OC)c1OC (stereo not drawn) [No. 46, 3-benzyl-7-bromo-2-(3,4,5-trimethoxyphenyl)-6,7-dihydro-3H,5H-benzo[4,5]thieno[2,3-d]pyrimidine-4,8-dione] | 31.4% | 37.1% | 44% | 20.9% | 32.1% | 72.2% |
| COc1cc(-c2nc3sc4c(c3c(=O)n2Cc2ccccc2)CCC(Br)C4=O)c(Br)c(OC)c1OC (stereo not drawn) [No. 47, 3-benzyl-7-bromo-2-(2-bromo-3,4,5-trimethoxyphenyl)-6,7-dihydro-3H,5H-benzo[4,5]thieno[2,3-d]pyrimidine-4,8-dione] | 39.7% | 52.2% | 31.9% | 59% | 16.1% | 63.2% |
| COc1cc(-c2nc3sc4c(c3c(=O)n2Cc2ccccc2)CCC(Br)(Br)C4=O)c(Br)c(OC)c1OC [No. 48, 3-benzyl-7,7-dibromo-2-(2-bromo-3,4,5-trimethoxyphenyl)-6,7-dihydro-3H,5H-benzo[4,5]thieno[2,3-d]pyrimidine-4,8-dione] | 33.7% | 23.4% | 0.8% | 25.6% | 27.4% | 36.5% |
| COc1cc(-c2nc3sc4c(O)cccc4c3c(=O)n2Cc2ccccc2)c(Br)c(OC)c1OC [No. 49, 3-Benzyl-2-(2-bromo-3,4,5-trimethoxyphenyl)-8-hydroxy-3H-benzo[4,5]thieno[2,3-d]pyrimidin-4-one] | 12.4% | 52.6% | 20.1% | 36.9% | 24.7% | 86.2% |
| COc1cc(-c2nc3sc4c(OC(C)=O)cccc4c3c(=O)n2Cc2ccccc2)c(Br)c(OC)c1OC [No. 50, Acetic acid 3-benzyl-2-(2-bromo-3,4,5-trimethoxyphenyl)-4-oxo-3,4-dihydro-benzo[4,5]thieno[2,3-d]pyrimidin-8-yl ester] | 32.9% | 75.8% | 32.4% | 39% | 34.4% | 65.8% |
| COc1cc(-c2nc3sc4c(O)c(Br)ccc4c3c(=O)n2Cc2ccccc2)c(Br)c(OC)c1OC [No. 52, 3-benzyl-7-bromo-2-(2-bromo-3,4,5-trimethoxyphenyl)-8-hydroxy-3H-benzo[4,5]thieno[2,3-d]pyrimidin-4-one] | -2.4% | 4.3% | 0.1% | 19.1% | 4.7% | 11.6% |
| COc1cc(-c2nc3sc4c(O)cccc4c3c(=O)n2Cc2ccccc2)cc(OC)c1OC [No. 53, 3-Benzyl-8-hydroxy-2-(3,4,5-trimethoxyphenyl)-3H-benzo[4,5]thieno[2,3-d]pyrimidin-4-one] | 32.2% | 52.7% | 22.4% | 60% | 52.2% | 71% |
| COc1cc(-c2nc3sc4c(OC(C)=O)cccc4c3c(=O)n2Cc2ccccc2)cc(OC)c1OC [No. 54, Acetic acid 3-benzyl-2-(3,4,5-trimethoxyphenyl)-4-oxo-3,4-dihydro-benzo[4,5]thieno[2,3-d]pyrimidin-8-yl ester] | 24.6% | 55.2% | 17% | 59.8% | 35.4% | 76.7% |
| O=c1c2c3c(sc2nc(-c2ccccc2)n1Cc1ccccc1)CCCC3 [No. 56, 3-Benzyl-2-phenyl-5,6,7,8-tetrahydro-3H-benzo[4,5]thieno[2,3-d]pyrimidin-4-one] | 14.7% | 41.9% | 18.8% | 24.5% | 21.3% | 33.2% |
| O=C1CCCc2c1sc1nc(-c3ccccc3)n(Cc3ccccc3)c(=O)c21 [No. 57, 3-Benzyl-2-phenyl-6,7-dihydro-3H,5H-benzo[4,5]thieno[2,3-d]pyrimidine-4,8-dione] | 19.7% | 57.3% | 17.5% | 28.5% | 23% | 47.3% |
| O=C1c2sc3nc(-c4ccccc4)n(Cc4ccccc4)c(=O)c3c2CCC1Br (stereo not drawn) [No. 58, 3-Benzyl-7-bromo-2-phenyl-6,7-dihydro-3H,5H-benzo[4,5]thieno[2,3-d]pyrimidine-4,8-dione] | 16% | 39.4% | 22.5% | 33.9% | 25.5% | 54.9% |
| O=C1c2sc3nc(-c4ccccc4)n(Cc4ccccc4)c(=O)c3c2CCC1(Br)Br [No. 59, 3-Benzyl-7,7-dibromo-2-phenyl-6,7-dihydro-3H,5H-benzo[4,5]thieno[2,3-d]pyrimidine-4,8-dione] | 17.6% | 31.7% | 36.7% | 40% | 24% | 20.8% |
| O=c1c2c(nc(-c3ccccc3)n1Cc1ccccc1)sc1c(O)cccc12 [No. 60, 3-Benzyl-8-hydroxy-2-phenyl-3H-benzo[4,5]thieno[2,3-d]pyrimidine-4-one] | 10% | 45.7% | 44.2% | 76.9% | 16.3% | 36% |
| O=c1c2c3c(sc2nc(-c2cccs2)n1Cc1ccccc1)CCCC3 [No. 61, 3-Benzyl-2-thiophen-2-yl-5,6,7,8-tetrahydro-3H-benzo[4,5]thieno[2,3-d]pyrimidin-4-one] | 20% | 26.4% | 25.7% | 23.8% | 17.7% | 26.2% |
| O=C1CCCc2c1sc1nc(-c3cccs3)n(Cc3ccccc3)c(=O)c21 [No. 62, 3-Benzyl-2-thiophen-2-yl-6,7-dihydro-3H,5H-benzo[4,5]thieno[2,3-d]pyrimidine-4,8-dione] | 18% | 28% | 18.9% | 26.4% | 25.8% | 32% |
| O=C1CCCc2c1sc1nc(-c3ccc(Br)s3)n(Cc3ccccc3)c(=O)c21 [No. 64, 3-Benzyl-2-(5-bromothiophen-2-yl)-6,7-dihydro-3H,5H-benzo[4,5]thieno[2,3-d]pyrimidine-4,8-dione] | 12.1% | 49% | 15.4% | 16.6% | 15% | 20.7% |
| O=C1c2sc3nc(-c4ccc(Br)s4)n(Cc4ccccc4)c(=O)c3c2CCC1Br (stereo not drawn) [No. 65, 3-Benzyl-7-bromo-2-(5-bromothiophen-2-yl)-6,7-dihydro-3H,5H-benzo[4,5]thieno[2,3-d]pyrimidine-4,8-dione] | 5% | 38% | 19.2% | 34.6% | 1.2% | 7.8% |
